{"source": "patent US20200390729A1", "about": "“OPHTHALMIC TOPICAL COMPOSITION COMPRISING DOBESILIC ACID FOR TREATING DISEASES OF THE POSTERIOR SEGMENT OF THE EYE” (LABORATORIOS SALVAT, S.A., priority 2017, published 2020)", "test": "Ocular distribution of CDO in rats, single dose topical ocular vs. oral", "type": "in vivo, Sprague Dawley (SD) rat", "conditions": "Sprague Dawley, rat", "experimental": "In Sprague Dawley (SD) rat, weighing approximately 200 g, CDO was administered by topical ocular instillation (10 μl/eye) at 10 mg/ml (composition 2 of Example 1), at 100 mg/ml (composition 5 of Example 1) or by oral gavage at 50 mg/kg, at 200 mg/kg or at 750 mg/kg in aqueous solution (from compositions 1, 3 and 4, respectively, of Example 1). At 15, 60, 180 and 360 minutes post-administration, animals were euthanized and plasma and ocular tissues including sclera, cornea, retina, vitreous humour/lens and optic nerve were collected.\nBioanalysis of CDO was performed depending on the type of matrix. In the case of plasma, proteins were precipitated using methanol. In the case of tissues, samples were grinded in a Mini Bead Beater using zirconium beads and methanol/water (1:1) (v/v) as solvent. After centrifugation, samples were analyzed by UPLC-MS/MS.\nChromatographic separation was carried out using an Acquity CSH Fluoro Phenyl column (1.7 μm, 50×2.1 mm). Mobile phase consisted of a gradient using 0.1% formic acid in water and acetonitrile from 5% to 45% in 4.5 min at a flow rate of 0.6 ml/min.\nWith regard to the mass spectrometric detection, the electrospray ionization source worked to record negative ions. Multiple Reaction Monitoring (MRM) acquisition mode of the deprotonated molecular ions was performed. The transition monitored for CDO was m/z 189.0→80.1 with a cone voltage of 45 V and collision energy of 25 eV.", "key": {"[1]": {"conditions": "cornea, topical eye 10 mg/ml (eye drop of 10 μl) = 0.1 mg, read-out: CDO concentrations Cornea"}, "[2]": {"conditions": "cornea, topical eye 100 mg/ml (eye drop of 10 μl) = 1 mg, read-out: CDO concentrations Cornea"}, "[3]": {"conditions": "optic nerve, oral 50 mg/Kg = 10 mg, read-out: CDO concentrations Optic nerve"}, "[4]": {"conditions": "plasma, oral 200 mg/Kg = 40 mg, read-out: CDO concentrations Plasma"}, "[5]": {"conditions": "plasma, oral 750 mg/Kg = 150 mg, read-out: CDO concentrations Plasma"}, "[6]": {"conditions": "retina/choroid, topical eye 10 mg/ml (eye drop of 10 μl) = 0.1 mg, read-out: CDO concentrations Retina/Choroid"}, "[7]": {"conditions": "retina, oral 200 mg/Kg = 40 mg, read-out: CDO concentrations Retina"}, "[8]": {"conditions": "retina, oral 750 mg/Kg = 150 mg, read-out: CDO concentrations Retina"}, "[9]": {"conditions": "retina, topical eye 100 mg/ml (eye drop of 10 μl) = 1 mg, read-out: CDO concentrations Retina"}, "[10]": {"conditions": "sclera, topical eye 10 mg/ml (eye drop of 10 μl) = 0.1 mg, read-out: CDO concentrations Sclera"}, "[11]": {"conditions": "sclera, topical eye 100 mg/ml (eye drop of 10 μl) = 1 mg, read-out: CDO concentrations Sclera"}}, "note": "Where two headings read alike, the source gives them in different places.", "data": [{"compound": "O=S(=O)(O)c1cc(O)ccc1O", "note": "[CDO, Calcium dobesilate monohydrate]", "values": [{"measurement": "concentration at 0.25 h", "setting": "[1]", "value": 4610, "unit": "ng/g"}, {"measurement": "concentration at 1 h", "setting": "[1]", "value": 1010, "unit": "ng/g"}, {"measurement": "concentration at 3 h", "setting": "[1]", "value": 1990, "unit": "ng/g"}, {"measurement": "concentration at 0.25 h", "setting": "[2]", "value": 58000, "unit": "ng/g"}, {"measurement": "concentration at 1 h", "setting": "[2]", "value": 1720, "unit": "ng/g"}, {"measurement": "concentration at 3 h", "setting": "[2]", "value": 3110, "unit": "ng/g"}, {"measurement": "concentration at 3 h", "setting": "[3]", "value": 1890, "unit": "ng/g"}, {"measurement": "concentration at 6 h", "setting": "[3]", "value": 410, "unit": "ng/g"}, {"measurement": "concentration at 0.25 h", "setting": "[4]", "value": 3100, "unit": "ng/g"}, {"measurement": "concentration at 1 h", "setting": "[4]", "value": 9040, "unit": "ng/g"}, {"measurement": "concentration at 3 h", "setting": "[4]", "value": 11400, "unit": "ng/g"}, {"measurement": "concentration at 0.25 h", "setting": "[5]", "value": 12600, "unit": "ng/g"}, {"measurement": "concentration at 1 h", "setting": "[5]", "value": 28800, "unit": "ng/g"}, {"measurement": "concentration at 3 h", "setting": "[5]", "value": 47600, "unit": "ng/g"}, {"measurement": "concentration at 0.25 h", "setting": "[6]", "value": 1830, "unit": "ng/g"}, {"measurement": "concentration at 1 h", "setting": "[6]", "value": 600, "unit": "ng/g"}, {"measurement": "concentration at 3 h", "setting": "[6]", "value": 2150, "unit": "ng/g"}, {"measurement": "concentration at 0.25 h", "setting": "retina/choroid, topical eye 100 mg/ml (eye drop of 10 μl) = 1 mg, read-out: CDO concentrations Retina/Choroid", "value": 17600, "unit": "ng/g"}, {"measurement": "concentration at 0.25 h", "setting": "[7]", "value": 110, "unit": "ng/g"}, {"measurement": "concentration at 1 h", "setting": "[7]", "value": 470, "unit": "ng/g"}, {"measurement": "concentration at 3 h", "setting": "[7]", "value": 1040, "unit": "ng/g"}, {"measurement": "concentration at 0.25 h", "setting": "[8]", "value": 670, "unit": "ng/g"}, {"measurement": "concentration at 1 h", "setting": "[8]", "value": 1340, "unit": "ng/g"}, {"measurement": "concentration at 3 h", "setting": "[8]", "value": 2420, "unit": "ng/g"}, {"measurement": "concentration at 0.25 h", "setting": "retina, topical eye 10 mg/ml (eye drop of 10 μl) = 0.1 mg, read-out: CDO concentrations Retina", "value": 100, "unit": "ng/g"}, {"measurement": "concentration at 0.25 h", "setting": "[9]", "value": 2030, "unit": "ng/g"}, {"measurement": "concentration at 1 h", "setting": "[9]", "value": 640, "unit": "ng/g"}, {"measurement": "concentration at 3 h", "setting": "[9]", "value": 250, "unit": "ng/g"}, {"measurement": "concentration at 6 h", "setting": "[9]", "value": 130, "unit": "ng/g"}, {"measurement": "concentration at 0.25 h", "setting": "[10]", "value": 170, "unit": "ng/g"}, {"measurement": "concentration at 1 h", "setting": "[10]", "value": 330, "unit": "ng/g"}, {"measurement": "concentration at 3 h", "setting": "[10]", "value": 770, "unit": "ng/g"}, {"measurement": "concentration at 0.25 h", "setting": "[11]", "value": 3540, "unit": "ng/g"}, {"measurement": "concentration at 1 h", "setting": "[11]", "value": 1140, "unit": "ng/g"}]}]}
